Measurements as given in ChEMBL document CHEMBL1201862, “PubChem BioAssay data set” (2004).
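Interpolation was linear, between the two tested concentrations surrounding the appropriate level; five concentrations were tested over 48 hours in 96-well plates. Here, GI50 denotes the concentration required for 50% inhibition of growth.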 Active and inactive are the calls of the source. No stated cut-off is given here; in the data, active = GI50 up to about 1.1 µM and inactive = higher.

Columns and labels:
Experiment in all cases: inhibition of tumour cell growth, NCI panel, 48 h
EKVX = test system: EKVX
786-0 = test system: 786-0
U-251 = test system: U-251
CAKI-1 = test system: CAKI-1
HOP-92 = test system: HOP-92
DU-145 = test system: DU-145
NCI-H226 = test system: NCI-H226
SN12C = test system: SN12C
MDA-N = test system: MDA-N
OVCAR-8 = test system: OVCAR-8
RPMI-8226 = test system: RPMI-8226
SF-295 = test system: SF-295
MDA-MB-435 = test system: MDA-MB-435
NCI-H460 = test system: NCI-H460
SW-620 = test system: SW-620
NCI/ADR-RES = test system: NCI/ADR-RES
UACC-62 = test system: UACC-62
SK-OV-3 = test system: SK-OV-3
SK-MEL-2 = test system: SK-MEL-2
M14 = test system: M14

Measured: GI50

COCCN(C(C)=O)C1CCC2(SCCS2)c2[nH]c3ccccc3c21 (stereo unspecified)
inactive: EKVX > 100 µM | 786-0 > 100 µM | U-251 > 100 µM | CAKI-1 > 100 µM | HOP-92 70.3 µM | DU-145 > 100 µM | NCI-H226 > 100 µM | SN12C > 100 µM | MDA-N > 100 µM | OVCAR-8 > 100 µM | RPMI-8226 35.5 µM | SF-295 > 100 µM | MDA-MB-435 > 100 µM | NCI-H460 77.6 µM | SW-620 > 100 µM | NCI/ADR-RES > 100 µM

Nc1nc(Cl)cc(NCC2(O)CC(CO)C2)n1 (stereo unspecified)
inactive: EKVX > 100 µM | 786-0 > 100 µM | U-251 > 100 µM | CAKI-1 > 100 µM | HOP-92 > 100 µM | UACC-62 > 100 µM | DU-145 > 100 µM | NCI-H226 > 100 µM | SN12C > 100 µM | MDA-N > 100 µM | OVCAR-8 > 100 µM | RPMI-8226 > 100 µM | SK-OV-3 > 100 µM | SF-295 > 100 µM | SK-MEL-2 > 100 µM | MDA-MB-435 > 100 µM | NCI-H460 > 100 µM | SW-620 > 100 µM | NCI/ADR-RES > 100 µM

COc1ccc(-c2oc3ccc(C)cc3c(=O)c2O)cc1
inactive: EKVX > 100 µM | 786-0 44.3 µM | U-251 28.6 µM | CAKI-1 > 100 µM | HOP-92 > 100 µM | UACC-62 > 100 µM | DU-145 > 100 µM | NCI-H226 > 100 µM | SN12C > 100 µM | M14 > 100 µM | MDA-N > 100 µM | OVCAR-8 23.1 µM | RPMI-8226 9.95 µM | SK-OV-3 > 100 µM | SF-295 > 100 µM | SK-MEL-2 > 100 µM | MDA-MB-435 > 100 µM | SW-620 > 100 µM | NCI/ADR-RES 35.4 µM

Cc1ccc(NC(=O)c2cc(S(=O)(=O)N3CCNNC3=O)c(S)cc2Cl)cc1
inactive: EKVX > 100 µM | 786-0 > 100 µM | U-251 > 100 µM | CAKI-1 > 100 µM | HOP-92 41.3 µM | UACC-62 > 100 µM | DU-145 > 100 µM | NCI-H226 > 100 µM | SN12C > 100 µM | M14 > 100 µM | MDA-N > 100 µM | OVCAR-8 > 100 µM | RPMI-8226 28.2 µM | SF-295 > 100 µM | SK-MEL-2 > 100 µM | MDA-MB-435 > 100 µM | NCI-H460 > 100 µM | SW-620 > 100 µM | NCI/ADR-RES > 100 µM

O=C1C=C(O)C(=O)c2c(O)ccc(O)c21
inactive: 786-0 > 100 µM | U-251 > 100 µM | CAKI-1 > 100 µM | HOP-92 > 100 µM | UACC-62 > 100 µM | DU-145 > 100 µM | NCI-H226 > 100 µM | M14 > 100 µM | MDA-N > 100 µM | OVCAR-8 > 100 µM | RPMI-8226 > 100 µM | SK-OV-3 > 100 µM | SF-295 > 100 µM | SK-MEL-2 > 100 µM | MDA-MB-435 > 100 µM | NCI-H460 > 100 µM | SW-620 > 100 µM | NCI/ADR-RES > 100 µM

NC(=O)c1sc2nc3ccccc3n2c1N
inactive: EKVX 67.5 µM | 786-0 40 µM | U-251 28.2 µM | CAKI-1 92.7 µM | HOP-92 69.8 µM | UACC-62 20 µM | DU-145 84.9 µM | NCI-H226 > 100 µM | M14 > 100 µM | MDA-N > 100 µM | OVCAR-8 65.8 µM | RPMI-8226 > 100 µM | SK-OV-3 27.2 µM | SF-295 23.8 µM | SK-MEL-2 30.2 µM | MDA-MB-435 > 100 µM | SW-620 > 100 µM | NCI/ADR-RES > 100 µM

CN(C)/C=N\c1cccc2cnccc12
inactive: EKVX > 100 µM | 786-0 > 100 µM | U-251 > 100 µM | CAKI-1 > 100 µM | HOP-92 > 100 µM | UACC-62 > 100 µM | DU-145 > 100 µM | NCI-H226 > 100 µM | SN12C > 100 µM | M14 > 100 µM | MDA-N > 100 µM | OVCAR-8 > 100 µM | RPMI-8226 > 100 µM | SK-OV-3 > 100 µM | SF-295 > 100 µM | SK-MEL-2 > 100 µM | MDA-MB-435 > 100 µM | NCI/ADR-RES > 100 µM

COc1ccccc1-c1c(C#N)c(N)[nH]c(=S)c1C#N
inactive: EKVX 43 µM | 786-0 50.7 µM | U-251 48.1 µM | CAKI-1 > 100 µM | HOP-92 62.5 µM | UACC-62 55.1 µM | DU-145 > 100 µM | NCI-H226 31.6 µM | SN12C 25.4 µM | M14 78.2 µM | MDA-N 25.9 µM | OVCAR-8 61.4 µM | RPMI-8226 20.5 µM | SF-295 52.8 µM | SK-MEL-2 37 µM | MDA-MB-435 35.6 µM | NCI-H460 67 µM | SW-620 27.4 µM | NCI/ADR-RES > 100 µM
